{"source": "patent US4762848A", "about": "“1,3-thiazoles and their use as immunomodulators” (Hoechst Aktiengesellschaft, priority 1985, dated 1988)", "key": {"macrophages [1]": {"system": "macrophages", "assay": "Stimulation of macrophage activity (chemiluminescence), relative to the compound from Example 7", "type": "in vivo, NMRI mice", "settings": "100 mg/kg, 1 × i.p. day 0; relative to Example 7 = 100%", "description": "(§1) This entailed investigation of the effect of the test substance obtained as in exemplary embodiment 7 on the stimulation of peritoneal macrophages in 6-8 week old NMRI mice. Female mice received the test substance in parenteral or oral doses of 25 mg/kg, 50 mg/kg, 100 mg/kg and 200 mg/kg. Buffered saline solution was administered to a control group. The mice were sacrificed three days after the injections, and the peritoneal macrophages of the animals were examined for their state of activation. The secretion of the lysosomal enzymes (β-galactosidase, β-glucuronidase and N-acetyl-β-D-glucosaminidase) was determined as one measure of macrophage activation. […] The level of oxidative metabolism in macrophages is taken as another measure of their state of activation. This activity is measured with the assistance of a biolumate by determination of the chemiluminescence.\n(§2) For this purpose, either 3×10^6 macrophages were cultured with 1 ml of TC 199 culture medium in Petri dishes of diameter 30 mm or 10^6 macrophages were cultured with 100 μl of medium in round-bottomed polyethylene tubes (for determination of the chemiluminescence), with 5% CO2 and at 37° C.\n(§3) After incubation for one hour, the cultures were washed to remove floating cells. The chemiluminescence (tube culture) was then determined directly, whereas the Petri dishes were incubated for a further 24 hours at 37° C. and then the enzyme and pinocytosis activities in the cultures were determined.\n(§4) NMRI mice were treated with the compounds according to the invention as described in experiment 2.\n(§5) The macrophage function (chemiluminescence and enzyme activity) was checked as a test to determine the immunostimulation.\n(§6) It can be seen from the table that in comparison with macrophages from untreated animals, the chemiluminescence reaction of these cells was also greatly stimulated by all the test substances, and their content of lysosomal enzymes was markedly raised."}, "macrophages [2]": {"system": "macrophages", "assay": "Stimulation of macrophage activity (exocytosis / lysosomal enzyme activity), relative to the compound from Example 7", "type": "in vivo, NMRI mice", "settings": "100 mg/kg, 1 × i.p. day 0; relative to Example 7 = 100%", "description": "as §1, §2, §3, §4, §5, §6"}, "Candida albicans": {"system": "Candida albicans", "settings": "ketoconazole 70 mg/kg (d-1-6, p.o.) alone", "method": "Female Balb/c mice (15/group) were infected intravenously with Candida albicans (10^6 cfu/mouse) (day 0). Three groups were formed: group 1 was treated with physiological saline solution, and group 2 received 70 mg/kg ketoconazole orally on 7 consecutive days (days -1-6). Group 3 received 10 intraperitoneal injections of 2 mg/kg test substance on days 3-30 (every 3rd day) in addition to ketoconazole. The number of animals which died was recorded each day, and the time at which 50% of the animals in each group had died (T50) was determined."}, "DTH reaction (SRBC)": {"system": "DTH reaction (SRBC)", "assay": "Stimulation of the DTH reaction, relative to the compound from Example 7", "type": "in vivo, NMRI mice", "settings": "1 × i.p. day 0, relative to Example 7 = 100%", "description": "Either 10^6 or 10^9 red blood cells from sheep were administered intravenously to each animal in groups of 5 female NMRI mice weighing 18-20 g. Sheep erythrocytes are regarded in immunology as a standard test substance (antigen) for the induction of cellular and humoral immune reactions. In particular, this test provides information about the functioning of the T-cell-dependent component (T-helper cells) of the immune system. The test substance obtained as in exemplary embodiment 7 ([2-(3-carboxy-1-propylthio)-4 -methyl-1,3-thiazol-5-yl]acetic acid) was administered intraperitoneally and perorally, respectively, […], each animal received 2×10^8 sheep erythrocytes injected into the underside of the foot and, 24 hours later, the swelling of the foot was measured. The foot swelling is induced by a skin reaction of the delayed type (delayed type hypersensitivity, DTH) and is, as is known to the expert, a measure of the cellular immune response (Collins, F. M. and Mackaness, G. B., J. Immunol. 101, 830-845, 1968). The results compiled in Table 1 illustraste that there is an increase in the cellular immune response owing to the administration of the subst nce obtained according to the invention, for example after imnunization with 10^6 or 10^9 sheep erythrocytes. An optimum stimulation can be observed in this experimental design on administration of 20-40 mg/kg test substance.\nNMRI mice were treated with the substances according to the invention as described in experiment 1.\nThe DTH reaction was checked as a test to determine the immunostimulation.\nIt can be seen from the table that the DTH reaction in the animals pretreated with the test substances is more pronounced than in the corresponding control animals."}}, "data": [{"smiles": "O=C(O)CSc1scnc1C(=O)O", "note": "[Example 15, 5-Carboxymethylthio-1,3-thiazol-4-ylcarboxylic acid]", "values": [{"measurement": "Macrophage activity: Chemiluminescence, relative activity", "setting": "macrophages [1]", "value": 49, "unit": "%"}, {"measurement": "Macrophage activity: Exocytosis, relative activity", "setting": "macrophages [2]", "value": 172, "unit": "%"}]}, {"smiles": "CSc1nc(C)c(CC(=O)O)s1", "note": "[Example 1, 2-Methylmercapto-4-methyl-1,3-thiazol-5-ylacetic acid]", "values": [{"measurement": "Macrophage activity: Chemiluminescence, relative activity", "setting": "macrophages [1]", "value": 29, "unit": "%"}, {"measurement": "Macrophage activity: Exocytosis, relative activity", "setting": "macrophages [2]", "value": 124, "unit": "%"}]}, {"smiles": "CC(=O)N1CCN(c2ccc(OCC3COC(Cn4ccnc4)(c4ccc(Cl)cc4Cl)O3)cc2)CC1", "note": "(centres unmarked) [Ketoconazole, ketoconazole]", "values": [{"measurement": "T50 (time at which 50% of the animals had died)", "setting": "Candida albicans", "value": 18, "unit": "days"}]}, {"smiles": "O=C(O)CSc1nnc(SCC(=O)O)s1", "note": "[Example 25, 2,5-Dicarboxymethylthio-1,3,4-thiadiazole]", "values": [{"measurement": "DTH reaction (SRBC), relative activity", "setting": "DTH reaction (SRBC); 100 mg/kg", "value": 115, "unit": "%"}, {"measurement": "Macrophage activity: Chemiluminescence, relative activity", "setting": "macrophages [1]", "value": 26, "unit": "%"}, {"measurement": "Macrophage activity: Exocytosis, relative activity", "setting": "macrophages [2]", "value": 186, "unit": "%"}]}, {"smiles": "Cc1nc(SCCCC(=O)O)sc1C(=O)O", "note": "[Example 39]", "values": [{"measurement": "DTH reaction (SRBC), relative activity", "setting": "DTH reaction (SRBC); 100 mg/kg", "value": 210, "unit": "%"}, {"measurement": "Macrophage activity: Chemiluminescence, relative activity", "setting": "macrophages [1]", "value": 35, "unit": "%"}, {"measurement": "Macrophage activity: Exocytosis, relative activity", "setting": "macrophages [2]", "value": 148, "unit": "%"}]}, {"smiles": "O=C(O)CCCSc1nnc(SCCCC(=O)O)s1", "note": "[Example 27, 2,5-Di(3-carboxy-1-propylthio)-1,3,4-thiadiazole]", "values": [{"measurement": "DTH reaction (SRBC), relative activity", "setting": "DTH reaction (SRBC); 20 mg/kg", "value": 144, "unit": "%"}, {"measurement": "Macrophage activity: Chemiluminescence, relative activity", "setting": "macrophages [1]", "value": 22, "unit": "%"}, {"measurement": "Macrophage activity: Exocytosis, relative activity", "setting": "macrophages [2]", "value": 258, "unit": "%"}]}, {"smiles": "O=C(O)CSc1nc(O)nn1-c1ccccc1", "note": "[Example 24, 1-Phenyl-3-hydroxy-1,2,4-triazol-5-ylmercaptoacetic acid]", "values": [{"measurement": "DTH reaction (SRBC), relative activity", "setting": "DTH reaction (SRBC); 100 mg/kg", "value": 115, "unit": "%"}, {"measurement": "Macrophage activity: Chemiluminescence, relative activity", "setting": "macrophages [1]", "value": 57, "unit": "%"}, {"measurement": "Macrophage activity: Exocytosis, relative activity", "setting": "macrophages [2]", "value": 218, "unit": "%"}]}]}
